In publication PMC7797213, “Vascular effects of serelaxin in patients with stable coronary artery disease: a randomized placebo-controlled trial” (Cardiovascular Research, 2020):

Assays:
Assay type in all cases: in vivo, human
[1] = system: patients with stable coronary artery disease; assay: Adenosine stress perfusion CMR: myocardial blood flow and myocardial perfusion reserve
Experimental: (30 μg/kg/day) or matching placebo, using a computerized randomization system involving concealed treatment arms. The co-primary endpoints were the change from baseline in global myocardial perfusion reserve (MPR) measured by quantitative perfusion cardiac magnetic resonance (CMR) imaging and the change from baseline in augmentation index (AIx) measured by applanation tonometry. The primary endpoints of MPR and AIx were assessed at baseline and 47 h post-commencement of the infusion (Figure 1).
A standardized CMR protocol was acquired on 1.5 T (Siemens Avanto) or 3.0 T (Siemens Skyra and Verio) magnetic resonance imaging (MRI) scanners. The CMR protocol included standard localizers, long- and short-axis cine acquisitions, stress and rest first-pass perfusion, and late gadolinium enhancement (LGE) imaging as previously described.[24] For perfusion imaging, a saturation recovery prepared fast gradient echo sequence was used to acquire dynamic contrast-enhanced CMR during adenosine stress (140–280 µg/kg/min for 3 min) and rest, during first-pass of the IV administered contrast agent (Gadovist, 0.05 mmol/kg, 5 mL/s), followed by 20 mL saline injection (5 mL/s). Three short-axis planes through the left ventricle (basal, mid-ventricular, and apical) were obtained.
CMR image collection, blinding, and handling were managed by an independent imaging contract-research organization (CRO; VirtualScopics, Inc., Rochester, NY, USA). The CMR quantitative analyses were performed by blinded academic readers with >3 years of CMR experience (D.C., A.R., and C.B.). Cine images for ventricular volumes and mass and myocardial perfusion images were manually contoured (QMass, Medis, Leiden, Netherlands). Myocardial blood flow (MBF) was derived from stress and rest perfusion images using a Fermi deconvolution method,[25] implemented in MATLAB.[26] Global MPR was calculated from the ratio of global MBF evaluated at stress and at rest (MPR = stress MBF/rest MBF). Global MBF was calculated by averaging the MBF (mL/g/min) for basal, mid, and apical short-axis left ventricular slices. Ascending and descending aortic strain and distensibility were derived from manually contoured end-diastolic and end-systolic aortic cine images. Aortic strain (AS, unit free fraction) = [maximum aortic lumen area − minimum aortic lumen area]/minimum aortic lumen area. Aortic distensibility (AD, mmHg^−^1) = aortic strain/pulse pressure. Ascending aortic peak flow velocity (m/s) was derived from manually contoured phase-velocity encoding sequence images (QFlow, Medis, Leiden, Netherlands). The presence or absence of myocardial scar was qualitatively assessed on the LGE images.

[2] = system: endothelin-1; assay: Plasma biomarker endothelin-1; conditions: for Endothelin-1, geo-mean (95% CI): plasma
Experimental: (§1) Biomarkers reported include: N-terminal pro-brain natriuretic peptide (NT-proBNP), high-sensitivity troponin T (hsTnT) measured to assess myocardial safety; cystatin C measured to access renal function; the biologically active form of endothelin-1 (1–21), measured to assess vascular function. Venous blood samples were collected at 0 (pre-dose), 24, 48, and 54 h, Day 30, and Day 180. NT-proBNP, hsTnT, and cystatin C samples were collected in EDTA tubes while endothelin-1 samples were collected in EDTA tubes containing aprotinin. Plasma was immediately frozen at −70°C pending analysis in complete patient sets. Commercial biomarker kits were as follows: hsTnT from Roche Diagnostics GmbH, Germany; cystatin C from Gentian, Moss, Norway; and active endothelin-1 […] from Biomedica Medizinprodukte, Vienna, Austria.
(§2) For the biomarker analyses, baseline was defined as the pre-dose assessment on Day 1. Raw values as well as changes from baseline were summarized by treatment and time. Descriptive statistics included geometric mean and 95% CI. For geometric means of change from baseline, a ratio to baseline was used to determine percentage change by first calculating in the log domain and then back transforming using exponentiation.
(§3) Baseline corresponds to the value at day 1 pre-dose. For change from baseline, geometric mean and its CI are calculated for the value (post) to baseline ratio.

[3] = system: cystatin C; assay: Plasma biomarker cystatin C; conditions: for Cystatin C, geo-mean (95% CI): plasma
Experimental: as §1, §2, §3

[4] = 0 h (pre-dose baseline), mean ± SD, n=22
[5] = 0 h (pre-dose baseline), mean ± SD, n=24
[6] = 47 h post dose, mean ± SD, n=23
[7] = 47 h post dose, mean ± SD, n=24
[8] = Bayesian, criterion 1: increase between serelaxin and placebo greater than zero
[9] = Bayesian, criterion 2: increase between serelaxin and placebo greater than 20%
[10] = baseline to 47 h, 48 h IV infusion 30 µg/kg/day, ANCOVA, n=22
[11] = baseline to day 3, Bayesian analysis
[12] = baseline to day 3, Bayesian analysis, non-informative priors, n=22
[13] = change baseline to 47 h, ANCOVA
[14] = 48 h, n=28, listed as serelaxin

Serelaxin
Apical MBF rest, absolute value [1, 4]: 1.41 ± 0.43 (22) mL/g/min
Apical perfusion reserve index, absolute value [1, 4]: 2.24 ± 0.89 (22)
Basal MBF rest, absolute value [1, 4]: 1.16 ± 0.39 (22) mL/g/min
Basal perfusion reserve index, absolute value [1, 4]: 2.25 ± 0.92 (22)
Global MPR, absolute value [1, 4]: 2.25 ± 0.88 (22)
Mean global MBF rest, absolute value [1, 4]: 1.26 ± 0.37 (22) mL/g/min
Mid MBF rest, absolute value [1, 4]: 1.22 ± 0.37 (22) mL/g/min
Mid perfusion reserve index, absolute value [1, 4]: 2.24 ± 0.98 (22)
Apical MBF stress, absolute value [1, 5]: 2.82 ± 1.00 (24) mL/g/min
Basal MBF stress, absolute value [1, 5]: 2.34 ± 0.90 (24) mL/g/min
Mean global MBF stress, absolute value [1, 5]: 2.54 ± 0.87 (24) mL/g/min
Mid MBF stress, absolute value [1, 5]: 2.45 ± 0.84 (24) mL/g/min
Apical MBF stress, absolute value [1, 6]: 2.66 ± 0.73 (23) mL/g/min
Apical perfusion reserve index, absolute value [1, 6]: 2.01 ± 0.60 (23)
Basal MBF stress, absolute value [1, 6]: 2.14 ± 0.84 (23) mL/g/min
Global MPR, absolute value [1, 6]: 1.98 ± 0.59 (23)
Mean global MBF stress, absolute value [1, 6]: 2.32 ± 0.67 (23) mL/g/min
Mid MBF stress, absolute value [1, 6]: 2.16 ± 0.70 (23) mL/g/min
Mid perfusion reserve index, absolute value [1, 6]: 1.93 ± 0.70 (23)
Apical MBF rest, absolute value [1, 7]: 1.41 ± 0.34 (24) mL/g/min
Basal MBF rest, absolute value [1, 7]: 1.13 ± 0.39 (24) mL/g/min
Mean global MBF rest, absolute value [1, 7]: 1.24 ± 0.32 (24) mL/g/min
Mid MBF rest, absolute value [1, 7]: 1.17 ± 0.31 (24) mL/g/min
Mean global MBF rest, probability of success Pr (Criterion 1|data) [1, 8]: 0.80
Mean global MBF stress, probability of success Pr (Criterion 1|data) [1, 8]: 0.38
Global MPR, probability of success Pr (Criterion 1|data) ([1]; Bayesian, criterion 1: increase in MPRI between serelaxin and placebo greater than zero): 0.22
Mean global MBF rest, probability of success Pr (Criterion 2|data) [1, 9]: 0.0014
Mean global MBF stress, probability of success Pr (Criterion 2|data) [1, 9]: 0.0006
Global MPR, probability of success Pr (Criterion 2|data) ([1]; Bayesian, criterion 2: increase in MPRI between serelaxin and placebo greater than 20%): 0.0002
Global MPR, change from baseline (adjusted mean) [1, 10]: -0.24
Mean global MBF rest, change from baseline (adjusted mean) [1, 10]: 0.01 mL/g/min
Mid MBF rest, change from baseline (adjusted mean) ([1]; baseline to 47 h, ANCOVA, n=22): -0.01 mL/g/min
Mid perfusion reserve index, change from baseline (adjusted mean) ([1]; baseline to 47 h, ANCOVA, n=22): -0.26
Mid MBF stress, change from baseline (adjusted mean) ([1]; baseline to 47 h, ANCOVA, n=23): -0.27 mL/g/min
Mean global MBF stress, change from baseline (adjusted mean) ([1]; baseline to 47 h, adenosine stress, 48 h IV infusion 30 µg/kg/day, ANCOVA, n=23): -0.22 mL/g/min
Global MPR, estimate of difference (serelaxin vs placebo), posterior median [1, 11]: -0.11
Mean global MBF rest, estimate of difference (serelaxin vs placebo), posterior median [1, 11]: 0.05 mL/g/min
Mean global MBF stress, estimate of difference (serelaxin vs placebo), posterior median [1, 11]: -0.05 mL/g/min
Global MPR, change from baseline, within treatment posterior median [1, 12]: -0.25
Mean global MBF rest, change from baseline, within treatment posterior median [1, 12]: 0.01 mL/g/min
Mean global MBF stress, change from baseline, within treatment posterior median ([1]; baseline to day 3, Bayesian analysis, non-informative priors, n=23): -0.22 mL/g/min
Mean global MBF rest, adjusted mean difference serelaxin versus placebo ([1]; change baseline to 47 h, 48 h IV infusion 30 µg/kg/day, ANCOVA): 0.05 mL/g/min
Global MPR, adjusted mean difference serelaxin versus placebo [1, 13]: -0.11
Mid MBF rest, adjusted mean difference serelaxin versus placebo [1, 13]: 0.06 mL/g/min
Mid MBF stress, adjusted mean difference serelaxin versus placebo [1, 13]: -0.11 mL/g/min
Mid perfusion reserve index, adjusted mean difference serelaxin versus placebo [1, 13]: -0.19
Mean global MBF stress, adjusted mean difference serelaxin versus placebo ([1]; change baseline to 47 h, adenosine stress, ANCOVA): -0.05 mL/g/min
Endothelin-1 change from baseline, geometric mean ratio to baseline (95% CI) ([2]; 24 h, n=27): 0.82 (0.68, 0.99)
Endothelin-1 change from baseline, geometric mean ratio to baseline (95% CI) ([2]; 48 h, n=28): 0.82 (0.70, 0.96)
Endothelin-1 change from baseline, geometric mean ratio to baseline (95% CI) [2, 14]: 0.82
Endothelin-1 change from baseline, geometric mean ratio to baseline (95% CI) ([2]; 54 h, n=26): 0.84 (0.73, 0.96)
Endothelin-1 change from baseline, geometric mean ratio to baseline (95% CI) ([2]; Day 30, n=29): 0.93 (0.77, 1.13)
Endothelin-1 change from baseline, geometric mean ratio to baseline (95% CI) ([2]; Day 180, n=29): 0.88 (0.69, 1.12)
Endothelin-1, geo-mean (95% CI) ([2]; 0 h (pre-dose baseline), n=29): 0.874 (0.630, 1.212) pmol/L
Endothelin-1, geo-mean (95% CI) ([2]; 24 h, n=27): 0.6732 (0.4626, 0.9796) pmol/L
Endothelin-1, geo-mean (95% CI) ([2]; 48 h, n=28): 0.6835 (0.4647, 1.0054) pmol/L
Endothelin-1, geo-mean (95% CI) ([2]; 54 h, n=26): 0.7535 (0.5098, 1.1138) pmol/L
Endothelin-1, geo-mean (95% CI) ([2]; Day 30, n=29): 0.8145 (0.5881, 1.1279) pmol/L
Endothelin-1, geo-mean (95% CI) ([2]; Day 180, n=29): 0.7664 (0.5436, 1.0806) pmol/L
Cystatin C change from baseline, geometric mean ratio to baseline (95% CI) ([3]; 24 h, n=27): 0.92 (0.89, 0.94)
Cystatin C change from baseline, geometric mean ratio to baseline (95% CI) ([3]; 48 h, n=28): 0.93 (0.91, 0.96)
Cystatin C change from baseline, geometric mean ratio to baseline (95% CI) [3, 14]: 0.93
Cystatin C change from baseline, geometric mean ratio to baseline (95% CI) ([3]; 54 h, n=27): 0.87 (0.80, 0.94)
Cystatin C change from baseline, geometric mean ratio to baseline (95% CI) ([3]; 54 h, n=27, listed as serelaxin): 0.87
Cystatin C change from baseline, geometric mean ratio to baseline (95% CI) ([3]; Day 30, n=29): 0.97 (0.93, 1.00)
Cystatin C change from baseline, geometric mean ratio to baseline (95% CI) ([3]; Day 180, n=29): 0.98 (0.89, 1.07)
Cystatin C, geo-mean (95% CI) ([3]; 0 h (pre-dose baseline), n=29): 0.931 (0.876, 0.990) mg/L
Cystatin C, geo-mean (95% CI) ([3]; 0 h (pre-dose baseline), n=29, listed as serelaxin): 0.93 mg/L
Cystatin C, geo-mean (95% CI) ([3]; 24 h, n=27): 0.839 (0.788, 0.893) mg/L
Cystatin C, geo-mean (95% CI) ([3]; 48 h, n=28): 0.867 (0.812, 0.926) mg/L
Cystatin C, geo-mean (95% CI) ([3]; 54 h, n=27): 0.796 (0.721, 0.878) mg/L
Cystatin C, geo-mean (95% CI) ([3]; Day 30, n=29): 0.899 (0.842, 0.960) mg/L
Cystatin C, geo-mean (95% CI) ([3]; Day 180, n=29): 0.908 (0.821, 1.004) mg/L
